Source: patent US5430043A, “Platelet aggregation inhibitors” (G. D. Searle & Co., priority 1993, dated 1995)
Where a name gives a salt, the structure may show the parent alone.

Legend:
[1] = system: Platelet aggregation in PRP (dog); test: In-Vitro Platelet Aggregation in PRP (Dog), collagen-induced; format: cell-based; details: collagen 33 μg/ml final
Description: In-Vitro Platelet Aggregation in PRP--(Dog)
Healthy male or female dogs were fasted for 8 hours prior to drawing blood; then 60 ml whole blood was collected using a butterfly needle and 60 cc plastic syringe with 6 ml of 0,129 M buffered sodium citrate (3.8%) (drawn from a minimum of 3 dogs and blood was pooled). The syringe was rotated carefully as blood was drawn to mix the citrate. Platelet-rich plasma (PRP) was prepared by centrifugation at 975×g for 3.17 minutes at room temperature, allowing the centrifuge to coast to a stop without braking. The PRP was removed from the blood with a plastic pipette and placed in a plastic capped 50 ml Corning conical sterile centrifuge tube which was held at room temperature. Platelet poor plasma (PPP) was prepared by centrifuging the remaining blood at 2000×g for 15 minutes at room temperature allowing the centrifuge to coast to a stop without braking. The platelet count in the PRP was routinely 2-4×10^8 platelets per ml. 400 μl of the PRP preparation and 50 μl of the compound to be tested or saline were preincubated for 2 minutes at 37° C. in a BioData aggregometer (BioData, Horsham, Pa.). 50 μl of collagen (diluted 1:3 with 5% dextrose and water solution, 33 μg/ml final concentration, equine tendon, Chronolog, Havertown, Pa.) was added to the cuvettes and the aggregation was monitored for 3 minutes. All compounds are tested in duplicate. Results are calculated as follows: [formula]
The assay results for the compounds of the present invention and their median inhibitory concentrations (IC50) are recorded in Tables I-III.

[2] = system: collagen-induced platelet aggregation; test: Oral (IG) administration of compound (ester) to dogs; inhibition of collagen-induced platelet aggregation; format: in vivo; details: dog
Description: Oral Administration of Compound
Dogs (n=2) were weighed and two control blood samples (2×2 ml) were drawn via venipuncture from the cephalic vein. Blood was centrifuged at 266×g for 6 minutes to prepare PRP. Percent aggregation prior to compound administration (baseline) was established by adding 50 μl of collagen to 450 μl of PRP and measuring aggregation for 4 minutes. Compound (in the ester form) was administered orally (single dose) by gelatin capsule. Blood samples (2×2 ml) were drawn at selected time intervals after dosing. Inhibition of collagen-induced platelet aggregation was determined by comparing aggregation responses in the samples containing compound with the responses of samples before compound administration (baseline). The remaining blood was centrifuged for 2 minutes at 12,000 ×g to prepare PPP for determination of concentration of compound in the plasma samples by bioassay (see below).

[3] = system: collagen-induced platelet aggregation; test: I.V. compound (acid) administration to dogs; inhibition of collagen-induced platelet aggregation; format: in vivo; details: dog, 1 mg/kg
Description: I.V. Compound Administration
Dogs were placed in a dog sling. Two control blood samples (2×2 ml) were collected and PRP was prepared and percent aggregation was determined to establish a baseline as stated above. Compound (in the acid form) in 4 ml of saline/water (50:50) was injected into the cephalic vein over one minute with a syringe connected to a 23 g butterfly infusion set. Blood samples (2×2 ml) were drawn at 5 minute intervals after dosing for the first 15 minutes, 15 minute intervals until 60 minutes, 30 minute intervals until 2 hours, hourly until ~6 hours, again at 24 hours or until baseline aggregation was reached. PRP was prepared for aggregation studies as previously described. PPP was prepared for determination of concentration of compound by bioassay (see below).

[4] = Canis lupus familiaris, Platelet

**Q.** For COC(=O)CC(CC(=O)O)NC(=O)CN1CCN(c2ccc(C(=N)N)cc2)C1=O (racemic) [Example 14, (±)Methylhydrogen3-[[[[1-[4-(aminoiminomethyl)phenyl]-4,5-dihydro-2(3H)-oxo-1H-imidazol-3-yl]methyl]carbonyl]amino]pentanedioate], which IC50 [1, 4] is on record?
**A.** 180 nM

**Q.** Which results are given for C=CC(CC(=O)OCC)NC(=O)Cn1ccn(-c2ccc(C(=N)N)cc2)c1=O (stereo in doubt) [Example 11, Ethyl 3-[[[[1-[4-(aminoiminomethyl)phenyl]-2(3H)-oxo-1H-imidazol-3-yl]methyl]carbonyl]amino]pent-4(3S)-enoate trifluoroacetate]?
**A.** Hours duration (IG - ester) ([2]; 5 mg/kg): 24 h; % inhibition (IG - ester) ([2]; 5 mg/kg, 24 hr): 35%; Max % inhibition (IG - ester) ([2]; 5 mg/kg, max @ 3 hours): 71%

**Q.** For C=CC(CC(=O)O)NC(=O)Cn1ccn(-c2ccc(C(=N)N)cc2)c1=O (stereo in doubt) [Example 12, 3-[[[[1-[4-(aminoiminomethyl)phenyl]-2(3H)-oxo-1H-imidazol-3-yl]methyl]carbonyl]amino]-4(3S)-pentenoic acid trifluoroacetate], which IC50 [1, 4] is on record?
**A.** 650 nM

**Q.** And the “Hours duration (IV - acid)” value [3]?
**A.** 6 h

**Q.** What about the “% inhibition (IV - acid)” value ([3]; 6 hr) of the same molecule?
**A.** 54%

**Q.** With N=C(N)c1ccc(-n2ccn(CC(=O)NCCC(=O)O)c2=O)cc1 [Example 3, 3-[[[[1-[4-(aminoiminomethyl)phenyl]-2(3H)-oxo-1H-imidazol-3-yl]methyl]carbonyl]amino]propanoic acid, trifluoroacetate] as the molecule, how does the IC50 [1, 4] read?
**A.** 2000 nM

**Q.** With N=C(N)c1ccc(-n2ccn(CC(=O)NCCCC(=O)O)c2=O)cc1 [Example 4, 4-[[[[1-[4-(aminoiminomethyl)phenyl]-2(3H)-oxo-1H-imidazol-3-yl]methyl]carbonyl]amino]butanoic acid trifluoroacetate] as the molecule, how does the inhibition at 1 µM [1, 4] read?
**A.** 0%

**Q.** N=C(N)c1ccc(N2CCN(CC(=O)NCCC(=O)O)C2=O)cc1 [Example 5, 3-[[[[1-[4-(aminoiminomethyl)phenyl]-4,5-dihydro-2(3H]-oxo-1H-imidazol-3-yl]methyl]carbonyl]amino]propanoic acid, trifluoroacetate] was tested. Which IC50 [1, 4] did it give?
**A.** 190 nM

**Q.** What about the “Hours duration (IV - acid)” value [3] of the same molecule?
**A.** 24 h

**Q.** What about the “% inhibition (IV - acid)” value ([3]; 24 hr) of the same molecule?
**A.** 31%

**Q.** Which IC50 [1, 4] does the source give for N=C(N)c1ccc(N2CCN(CC(=O)NCCCC(=O)O)C2=O)cc1 [Example 7, 4-[[[[1-[4-(Aminoiminomethyl)phenyl]-4,5-dihydro-2(3H)-oxo-1H-imidazol-3-yl]methyl]carbonyl]amino]butanoic acid] here?
**A.** 1100 nM

**Q.** CCOC(=O)CCNC(=O)CN1CCN(c2ccc(C(=N)N)cc2)C1=O [Example 8, Ethyl 3-[[[[1-[4-(aminoiminomethyl)phenyl]-4,5-dihydro-2(3H)-oxo-1H-imidazol-3-yl]methyl]carbonyl]amino]propanoate] was tested. Which “Hours duration (IG - ester)” value ([2]; 2.5 mg/kg) did it give?
**A.** 3.1 h

**Q.** And the “% inhibition (IG - ester)” value ([2]; 2.5 mg/kg, 3.1 hr)?
**A.** 16%

**Q.** What does the source list for CCOC(=O)CC(C)NC(=O)Cn1ccn(-c2ccc(C(=N)N)cc2)c1=O (stereo not shown) [Example 9, Ethyl 3-[[[[1-[4-(aminoiminomethyl)phenyl]-2(3H)-oxo-1H-imidazol-3-yl]methyl]carbonyl]amino]butanoate trifluoroacetate]?
**A.** Hours duration (IG - ester) ([2]; 10 mg/kg): 4.5 h; % inhibition (IG - ester) ([2]; 10 mg/kg, 4.5 hr): 33%

**Q.** How did the IC50 [1, 4] turn out when CC(CC(=O)O)NC(=O)Cn1ccn(-c2ccc(C(=N)N)cc2)c1=O (stereo not shown) [Example 10, 3-[[[1-[4-(aminoiminomethyl)phenyl]-2(3H)-oxo-1H-imidazol-3-yl]methyl]carbonyl]amino]butanoic acid trifluoroacetate] was run?
**A.** 620 nM

**Q.** How did the “Hours duration (IG - ester)” value ([2]; 5 mg/kg) turn out when COC(=O)CC(CC(=O)OC)NC(=O)CN1CCN(c2ccc(C(=N)N)cc2)C1=O [Example 13, Dimethyl 3-[[[[1-[4-(aminoiminomethyl)phenyl]-4,5-dihydro-2(3H)-oxo-1H-imidazol-3-yl]methyl]carbonyl]amino]pentanedioate] was run?
**A.** 24 h

**Q.** What about the “% inhibition (IG - ester)” value ([2]; 5 mg/kg, 24 hr) of the same molecule?
**A.** 14%

**Q.** And the “Max % inhibition (IG - ester)” value ([2]; 5 mg/kg, max @ 6 hours)?
**A.** 63%

**Q.** For N=C(N)c1ccc(-n2ccn(CCC(=O)NCCC(=O)O)c2=O)cc1 [Example 16, 3-[[[[1-[4-(aminoiminomethyl)phenyl]-2(3H)-oxo-1H-imidazol-3-yl]ethyl]carbonyl]amino]propanoic acid], which IC50 [1, 4] is on record?
**A.** 340 nM

**Q.** What does the source list for CCOC(=O)CC(NC(=O)Cn1ccn(-c2ccc(C(=N)N)cc2)c1=O)c1ccoc1 (stereo not drawn) [Example 19, Ethyl β-[[[[1-[4-(aminoiminomethyl)phenyl]-2(3H)-oxo-1H-imidazol-3-yl]-methyl]carbonyl]amino]-3-furanpropanoate trifluoroacetate]?
**A.** Hours duration (IG - ester) ([2]; 10 mg/kg): 24 h; % inhibition (IG - ester) ([2]; 10 mg/kg, 24 hr): 28%; Max % inhibition (IG - ester) ([2]; 10 mg/kg, max @ 6 hours): 85%

**Q.** How did the IC50 [1, 4] turn out when N=C(N)c1ccc(-n2ccn(CC(=O)NC(CC(=O)O)c3ccoc3)c2=O)cc1 (stereo not drawn) [Example 20, β-[[[[1-[4-(aminoiminomethyl)phenyl]-2(3H)-oxo-1H-imidazol-3-yl]methyl]carbonyl]amino]-3-furanpropanoic acid trifluoroacetate] was run?
**A.** 700 nM

**Q.** What does the source list for CCOC(=O)CC(NC(=O)Cn1ccn(-c2ccc(C(=N)N)cc2)c1=O)c1cccnc1 (stereo not drawn) [Example 21, Ethyl β-[[[[1-[4-(aminoiminomethyl)phenyl]-2(3H)-oxo-1H-imidazol-3-yl]methyl]carbonyl]amino]-3-pyridinepropanoate]?
**A.** Hours duration (IG - ester) ([2]; 10 mg/kg): 24 h; % inhibition (IG - ester) ([2]; 10 mg/kg, 24 hr): 43%

**Q.** Which results are given for N=C(N)c1ccc(-n2ccn(CC(=O)NC(CC(=O)O)c3cccnc3)c2=O)cc1 (stereo not drawn) [Example 22, β-[[[[1-[4-(aminoiminomethyl)phenyl]-2(3H)-oxo-1H-imidazol-3-yl]methyl]carbonyl]amino]-3-pyridinepropanoic acid]?
**A.** IC50 [1, 4]: 170 nM; Hours duration (IV - acid) [3]: 24 h; % inhibition (IV - acid) ([3]; 24 hr): 40%

**Q.** CCOC(=O)C[C@H](NC(=O)CN1CCN(c2ccc(C(=N)N)cc2)C1=O)c1cccnc1 [Example 23, Ethyl β-[[[[1-[4-(aminoiminomethyl]phenyl]-4,5-dihydro-2(3H)-oxo-1H-imidazol-3-yl]methyl]carbonyl]amino]-3(S)-pyridinepropanoate] was tested. Which “Hours duration (IG - ester)” value ([2]; 5 mg/kg) did it give?
**A.** 24 h

**Q.** And the “% inhibition (IG - ester)” value ([2]; 5 mg/kg, 24 hr)?
**A.** 88%

**Q.** Which inhibition at 1 µM [1, 4] does the source give for N=C(N)c1ccc(N2CCCN(CC(=O)NCCC(=O)O)C2=O)cc1 [Example 26, 3-[[[[1-[4-(Aminoiminomethyl)phenyl]-1,4,5,6-tetrahydro-2(3H)-oxopyrimidin-3-yl]methyl]carbonyl]amino]propanoic acid, trifluoroacetate] here?
**A.** 18%

**Q.** For “β-[[[[4-(aminoiminomethyl)phenyl]-4,5-dihydro-2(3H)-oxo-1H-imidazol-3- yl]methyl]carbonyl]amino]-3-pyridinepropanoic acid [Example 24]”, which IC50 [1] is on record?
**A.** 80 nM

**Q.** What about the “Hours duration (IV - acid)” value [3] of the same molecule?
**A.** 27 h

**Q.** What about the “% inhibition (IV - acid)” value ([3]; 27 hr) of the same molecule?
**A.** 98%
